Data published in ChEMBL document CHEMBL1144319, “Design, synthesis, and evaluation of oxazole transthyretin amyloidogenesis inhibitors” (Bioorg Med Chem Lett, 2005).

Biological target: Transthyretin (Homo sapiens) (UniProt P02766)
Experiment: Binding selectivity to transthyretin in human blood plasma after 24 hincubation with 10.8 uM inhibitor
Type: cell-free

SMILES: O=C(O)c1nc(-c2cc(Cl)cc(Cl)c2)oc1C(F)(F)F
- Molar equivalence bound: 0.68

SMILES: CCc1oc(-c2cc(Cl)cc(Cl)c2)nc1C(=O)O
- Molar equivalence bound: 0.49
